“Also recorded” adds a separate entry of the source.
Experiments:
[1] = Cytotoxicity of compounds and their P450-generated metabolites, Hep3B DataChip stamped with MetaChip; conditions: human
Experimental: (§1) The cytotoxicity of drugs (or drug metabolites) was determined by staining the slide containing the cells with a Live/Dead test kit (Molecular Probes) that produces a green fluorescent response from living cells. At the end of the 3-day culture period post stamping, the three-dimensional cell chip (DataChip) was rinsed three times in PBS for 5 min each. One mL of a dye solution containing 0.5 μM calcein AM was applied to each three-dimensional cell chip using a glass slide with 1 mm thick perimeter gasket acting as a barrier to prevent loss of the dye solution.
(§2) Following incubation for 50 minutes at room temperature, excess dye in the collagen-gel drops was removed by incubating the slides in a petri dish containing 16 mL of PBS for 30 min on a gyratory shaker at 60 rpm. The three-dimensional cell chip was dried thoroughly with nitrogen. The three-dimensional cell chip was scanned with the GenePix® Professional 4200A scanner equipped with blue laser and standard blue filter to determine the green fluorescent intensity and was quantified from the scanning image using GenePix Pro 6.0 (Molecular Devices Co.).
(§3) Percent live cells=(FReaction/FMax)×100
(§4) where FReaction is the green fluorescence intensity of the reaction spot and FMax is the green fluorescence intensity of untreated fully viable cells.
(§5) For efficient stamping, MTMOS-coated glass slides were prepared to contain a sol-gel barrier on the periphery of the slides.
(§6) To this end […] of methyltrimethoxysilane (MTMOS) sol was prepared by mixing 2 mL of MTMOS with 1 mL of HCl (10 mM) and sonicated for 10 min. The sol was spotted on the periphery of the MTMOS-coated slide and then the slide was baked in an oven for 30 min at 120° C.
(§7) The MetaChip was stored at −80° C. for 1 day prior to use. Cytotoxicity studies were performed by spotting 20 nL of test compound in distilled water (0-2 mM) onto the MetaChip spots and partially dried.
(§8) This was followed by stamping of the three-dimensional cell chip (DataChip) containing either MCF7 or Hep3B cells onto the MetaChip.
(§9) To this end, a MetaChip consisting of 20×54 alginate spots was prepared; each spot containing a single human P450 isoform (CYP1A2, CYP2D6, or CYP3A4), a mixture of the three isoforms, or no P450 as a test compound only control. Addition of test compounds was carried out by overlay spotting of solutions of these compounds onto the MetaChip, which was then stamped on top of the DataChip.
(§10) Using three DataChips in combination with three MetaChips, IC50 values for 27 compounds and their P450-generated metabolites against human Hep3B cells were determined. […] The three P450 isoforms were used along with an equimolar mixture of the three isoforms and a test compound only control without P450. The test compounds were added to the MetaChip, which was then stamped onto the DataChip and incubated for 6 h. This was followed by removing the DataChip, rinsing with growth medium, incubating in media for 3 days, and then stained for cell viability.

human Hep3B cells = test: in vitro
Experimental: as §1, §2, §3, §4, §5, §6, §7, §8, §9, §10

[2] = IC50, CYP1A2, Hep3B DataChip, MetaChip spots with CYP1A2
[3] = IC50, CYP2D6, Hep3B DataChip, MetaChip spots with CYP2D6
[4] = IC50, CYP3A4, Hep3B DataChip, MetaChip spots with CYP3A4
[5] = IC50, Mixture, Hep3B DataChip, equimolar mixture of CYP1A2, CYP2D6, CYP3A4
[6] = IC50, No P450, Hep3B DataChip, test compound only control without P450
[7] = Hep3B cells, compared with no P450

Compound	IC50 at 6 h [1, 2] [µM]	IC50 at 6 h [1, 3] [µM]	IC50 at 6 h [1, 4] [µM]	IC50 at 6 h [1, 5] [µM]	IC50 at 6 h [1, 6] [µM]	Activation or deactivation of the toxic response by CYP1A2 (human Hep3B cells)	Activation or deactivation of the toxic response by CYP2D6 (human Hep3B cells)	further results
C[C@H]1O[C@@H](O[C@H]2[C@@H](O)C[C@H](O[C@H]3[C@@H](O)C[C@H](O[C@H]4CC[C@@]5(C)[C@H](CC[C@@H]6[C@@H]5C[C@@H](O)[C@]5(C)[C@@H](C7=CC(=O)OC7)CC[C@]65O)C4)O[C@@H]3C)O[C@@H]2C)C[C@H](O)[C@@H]1O [Digoxin]	1.29 ± 0.09	0.43 ± 0.03	1.37 ± 0.05	0.59 ± 0.03	0.8 ± 0.09			IC50 at 6 h ([1]; IC50 values, Hep3B DataChip): < 1 µM
Nc1ccn([C@@H]2O[C@H](CO)[C@@H](O)[C@@H]2O)c(=O)n1 [Cytarabine]						moderately to weakly deactivated	deactivating	
O=c1[nH]c(=O)n(C2CCCO2)cc1F (centres unmarked) [Tegafur, 5-fluoro-1-(tetrahydro-2-furfuryl)-uracil]	> 1000	> 1000	54800 ± 21400	> 1000	> 1000			
Cl[C@H]1[C@H](Cl)[C@@H](Cl)[C@@H](Cl)[C@H](Cl)[C@H]1Cl [Lindane]	2730 ± 1080	5150 ± 1960	523 ± 133	> 1000	394 ± 132	moderately to weakly deactivated	deactivating lindane (strongly)	Activation or deactivation of the toxic response by the mixture of the three P450 isoforms (human Hep3B cells): greater deactivation in the mixture than with any of the three individual isoforms
CC(=O)CC(c1ccccc1)c1c(O)c2ccccc2oc1=O (centres unmarked) [Warfarin]								IC50 at 6 h ([1]; IC50, CYP1A2): > 1000 µM; IC50 at 6 h ([1]; IC50, CYP2D6): > 1000 µM; IC50 at 6 h ([1]; IC50, CYP3A4): > 1000 µM; IC50 at 6 h ([1]; IC50, Mixture): > 1000 µM; IC50 at 6 h ([1]; IC50, No P450): > 1000 µM
CC(=O)O[C@H]1C(=O)[C@@]2(C)[C@H]([C@H](OC(=O)c3ccccc3)[C@]3(O)C[C@H](OC(=O)[C@H](O)[C@@H](NC(=O)c4ccccc4)c4ccccc4)C(C)=C1C3(C)C)[C@]1(OC(C)=O)CO[C@@H]1C[C@@H]2O [Paclitaxel, paclitaxel]							deactivating	
NNC(=O)c1ccncc1 [Isoniazid]	353 ± 89.9	> 1000	> 1000	> 1000	> 1000			
CC(=O)Oc1ccccc1C(=O)O [Acetylsalicylic Acid]	> 1000	> 1000	> 1000	> 1000	> 1000			
CCN(CC)CCCC(C)Nc1ccnc2cc(Cl)ccc12 (centres unmarked) [Chloroquine]	184 ± 19.9	112 ± 22.3	79.7 ± 12.8	94.5 ± 14.1	189 ± 25.2			Activation or deactivation of the toxic response by CYP3A4 (human Hep3B cells; [7]): deactivated
O=P1(N(CCCl)CCCl)NCCCO1 (centres unmarked) [Cyclophosphamide, cyclophosphamide]	> 1000	> 1000	2110 ± 600	> 1000	> 1000			Activation or deactivation of the toxic response by CYP3A4 (human Hep3B cells; [7]): strongly activated
CN(C)CCC=C1c2ccccc2CCc2ccccc21 [Amitriptyline]	75 ± 14.2	55.9 ± 10.1	63.4 ± 12.1	75.6 ± 9.89	31.7 ± 1.98	moderately to weakly deactivated		
CN1CCCC1c1cccnc1 (centres unmarked) [Nicotine]						moderately to weakly deactivated	deactivating	IC50 ([1]; IC50, CYP1A2): 90.8 ± 20.3 µM; IC50 ([1]; IC50, CYP2D6): 158 ± 39.5 µM; IC50 ([1]; IC50, CYP3A4): 647 ± 191 µM; IC50 ([1]; IC50, Mixture): 377 ± 147 µM; IC50 ([1]; IC50, No P450): 29.5 ± 4.12 µM; Activation or deactivation of the toxic response by CYP3A4 (human Hep3B cells): deactivated chloroquine, quinidine, nicotine (strongly)
Oc1c(Cl)c(Cl)c(Cl)c(Cl)c1Cl [Pentachlorophenol]								IC50 ([1]; IC50, CYP1A2): > 1000 µM; IC50 ([1]; IC50, CYP2D6): > 1000 µM; IC50 ([1]; IC50, CYP3A4): > 1000 µM; IC50 ([1]; IC50, Mixture): 489 ± 272 µM; IC50 ([1]; IC50, No P450): > 1000 µM
CC(=O)Nc1ccc(O)cc1 [Acetaminophen, acetaminophen]	2590 ± 960	> 1000	2770 ± 1240	> 1000	> 1000	strongly activated		Activation or deactivation of the toxic response by CYP3A4 (human Hep3B cells): strongly activated; IC30 (human Hep3B cells): (IC30: 0.50 ± 0.02)
C[n+]1ccc(-c2cc[n+](C)cc2)cc1 [Paraquat, paraquat]								IC50 [1, 2]: 5.06 ± 0.29 µM; IC50 [1, 3]: 20.8 ± 1.8 µM; IC50 [1, 4]: 52 ± 9.12 µM; IC50 [1, 5]: 44.2 ± 6.05 µM; IC50 [1, 6]: 79.8 ± 12.7 µM; Activation or deactivation of the toxic response by the mixture of the three P450 isoforms (human Hep3B cells; Hep3B cells): activation; Activation or deactivation of the toxic response by CYP1A2 (human Hep3B cells; [7]): activation; Activation or deactivation of the toxic response by CYP2D6 (human Hep3B cells; [7]): activation; also recorded: activated
Cn1c(=O)c2[nH]cnc2n(C)c1=O [Theophylline]	239 ± 56.4	119 ± 26.3	36.9 ± 11.2	84.3 ± 22.1	38.4 ± 8.92	moderately to weakly deactivated	deactivating	
C=C[C@H]1C[N@@]2CC[C@H]1C[C@@H]2[C@@H](O)c1ccnc2ccc(OC)cc12 [Quinidine]	92.9 ± 7.5	106 ± 9.05	126 ± 10.2	246 ± 39.4	19.2 ± 2.36			Activation or deactivation of the toxic response by the mixture of the three P450 isoforms (human Hep3B cells; Hep3B cells): greater deactivation in the mixture than with any of the three individual isoforms; Activation or deactivation of the toxic response by CYP1A2 (human Hep3B cells; [7]): moderately to weakly deactivated; Activation or deactivation of the toxic response by CYP2D6 (human Hep3B cells; [7]): deactivating; Activation or deactivation of the toxic response by CYP3A4 (human Hep3B cells; [7]): deactivated
CN(Cc1cnc2nc(N)nc(N)c2n1)c1ccc(C(=O)N[C@@H](CCC(=O)O)C(=O)O)cc1 [Methotrexate]	2.79 ± 0.73	38.3 ± 12.1	10.9 ± 2.76	8 ± 2.97	2.41 ± 0.55		deactivating	Activation or deactivation of the toxic response by CYP3A4 (human Hep3B cells): deactivated
